According to patent publication EP4678638A1, “NEW E3 UBIQUITIN LIGASE LIGAND, PROTEIN DEGRADATION AGENT AND USE THEREOF” (priority 2023, dated 2024):
Read-outs that look alike come from different tables or passages of the source.

Assays:
[1] = system: H2228; assay: CCK-8 proliferation, NCI-H2228 (H2228); format: cell-based; details: Homo sapiens, NCI-H2228; Table B6, compounds designed based on the ALK inhibitors; H2228 cells; read-out: Inhibitory activity (IC50, nM) on tumor cell proliferation, H2228
In short: (§1)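 Tumor cells were cultured at 37°C with 5% CO2, seeded, and after 24h treated with compounds at 10 concentrations starting at 10µM (5-fold serial dilutions).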

[2] = molecular target: T1, ALK (Homo sapiens, UniProt Q96SW2+Q9HC35+Q9UM73); assay: Western blot degradation of ALK (H2228 Cell); format: cell-based; details: Table D5
T1 construct: evaluate the effects of the compounds of the present disclosure on the expression of target proteins in cells; endogenous in cells; host or cells: H2228
T1 sequence (Q9HC35+Q9UM73 fused): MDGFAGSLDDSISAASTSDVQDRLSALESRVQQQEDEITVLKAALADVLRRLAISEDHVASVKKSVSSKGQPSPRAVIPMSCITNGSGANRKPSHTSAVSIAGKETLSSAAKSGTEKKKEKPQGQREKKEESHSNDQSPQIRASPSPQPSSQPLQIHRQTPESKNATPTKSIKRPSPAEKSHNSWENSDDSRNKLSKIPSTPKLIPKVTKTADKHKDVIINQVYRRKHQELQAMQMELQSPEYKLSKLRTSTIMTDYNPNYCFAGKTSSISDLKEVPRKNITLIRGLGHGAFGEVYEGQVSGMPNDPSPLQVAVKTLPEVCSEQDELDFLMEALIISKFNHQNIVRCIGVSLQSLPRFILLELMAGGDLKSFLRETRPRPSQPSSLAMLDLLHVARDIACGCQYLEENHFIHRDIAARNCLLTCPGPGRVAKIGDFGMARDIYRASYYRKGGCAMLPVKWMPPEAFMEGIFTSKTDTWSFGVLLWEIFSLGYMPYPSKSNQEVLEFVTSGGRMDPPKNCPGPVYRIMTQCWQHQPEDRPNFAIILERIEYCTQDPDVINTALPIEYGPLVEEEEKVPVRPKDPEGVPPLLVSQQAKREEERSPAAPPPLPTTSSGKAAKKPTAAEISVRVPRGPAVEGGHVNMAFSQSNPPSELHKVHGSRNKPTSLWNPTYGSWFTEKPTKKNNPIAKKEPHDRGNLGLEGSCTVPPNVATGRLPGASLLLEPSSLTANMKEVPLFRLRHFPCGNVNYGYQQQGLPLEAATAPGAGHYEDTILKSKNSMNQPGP
T1 sequence (Q96SW2 whole entry): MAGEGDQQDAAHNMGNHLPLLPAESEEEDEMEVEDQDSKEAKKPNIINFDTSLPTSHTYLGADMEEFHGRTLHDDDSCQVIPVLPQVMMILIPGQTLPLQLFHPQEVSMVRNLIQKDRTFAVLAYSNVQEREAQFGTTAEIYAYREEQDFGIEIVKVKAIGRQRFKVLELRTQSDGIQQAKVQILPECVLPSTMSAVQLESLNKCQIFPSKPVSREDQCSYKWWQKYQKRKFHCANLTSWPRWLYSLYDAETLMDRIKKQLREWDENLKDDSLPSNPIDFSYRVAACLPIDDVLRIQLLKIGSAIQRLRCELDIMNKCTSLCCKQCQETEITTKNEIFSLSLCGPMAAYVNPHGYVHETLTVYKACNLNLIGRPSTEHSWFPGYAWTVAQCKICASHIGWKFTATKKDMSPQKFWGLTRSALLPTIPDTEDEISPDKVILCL
T1 sequence (Q16531 whole entry partner): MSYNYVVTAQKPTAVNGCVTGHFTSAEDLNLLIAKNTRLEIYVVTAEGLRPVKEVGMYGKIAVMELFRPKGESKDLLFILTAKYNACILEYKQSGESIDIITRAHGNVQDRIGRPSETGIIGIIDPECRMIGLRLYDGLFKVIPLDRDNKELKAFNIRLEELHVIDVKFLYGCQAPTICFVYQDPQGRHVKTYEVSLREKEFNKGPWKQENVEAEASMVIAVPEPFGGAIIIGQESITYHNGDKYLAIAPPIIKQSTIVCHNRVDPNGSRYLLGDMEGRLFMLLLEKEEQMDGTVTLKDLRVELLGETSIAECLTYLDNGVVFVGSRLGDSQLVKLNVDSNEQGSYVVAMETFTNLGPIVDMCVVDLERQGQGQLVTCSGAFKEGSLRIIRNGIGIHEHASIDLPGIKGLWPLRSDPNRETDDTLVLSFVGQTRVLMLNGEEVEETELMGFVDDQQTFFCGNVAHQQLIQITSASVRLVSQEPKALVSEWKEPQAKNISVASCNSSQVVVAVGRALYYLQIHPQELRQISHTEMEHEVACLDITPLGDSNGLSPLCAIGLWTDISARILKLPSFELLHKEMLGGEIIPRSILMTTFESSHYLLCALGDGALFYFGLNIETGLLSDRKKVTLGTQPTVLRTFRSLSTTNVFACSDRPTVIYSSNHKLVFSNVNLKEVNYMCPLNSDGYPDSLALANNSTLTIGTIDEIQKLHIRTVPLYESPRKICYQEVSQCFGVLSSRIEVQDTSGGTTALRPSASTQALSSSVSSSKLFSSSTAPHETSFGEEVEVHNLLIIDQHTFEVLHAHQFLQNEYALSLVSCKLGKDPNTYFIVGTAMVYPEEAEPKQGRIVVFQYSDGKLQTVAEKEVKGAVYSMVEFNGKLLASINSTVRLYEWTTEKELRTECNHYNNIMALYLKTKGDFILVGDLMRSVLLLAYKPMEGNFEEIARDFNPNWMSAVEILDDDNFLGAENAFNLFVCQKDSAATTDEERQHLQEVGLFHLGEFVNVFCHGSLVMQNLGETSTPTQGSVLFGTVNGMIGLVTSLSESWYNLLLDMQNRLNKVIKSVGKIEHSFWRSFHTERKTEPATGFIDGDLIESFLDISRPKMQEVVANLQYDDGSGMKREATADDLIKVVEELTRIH
In short: (§2)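 After compound exposure, cells were harvested and lysates run on SDS-PAGE, transferred to nitrocellulose and probed with antibodies. Remaining target (%) was computed from band grayscale relative to an internal control protein and normalised; degradation (%) was 100% minus that.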

[3] = system: MDA-MB-231; assay: CCK-8 proliferation, MDA-MB-231; format: cell-based; details: Homo sapiens
Protocol: The tumor cells used herein were cultured in a cell culture medium listed in table A1 at 37°C in an incubator with 5% CO2. Prior to experimentation, all cell lines used were correctly identified by STR profiling, and tested negative for mycoplasma contamination using a mycoplasma detection kit through routine screenings. Table A1. Tumor cells and cell culture medium used in the present disclosure
IC50 values of the compounds of the present disclosure (including the compounds in Table 1, and compounds of examples) were measured using the Meilun Cell Counting Kit-8 kit from Dalian Meilun Biotech Co., Ltd. Assay details are as follows: tumor cells were seeded in a 96-well plate at a density listed in Table A2. After 24h, 100 µL of the inoculated cells were treated with 0.5µL of the compounds of the present disclosure (including the compounds in Tables 1 and 2, and compounds of examples) at 10 different successively decreasing concentrations (starting at the highest concentration of 10µM; 5-fold serial dilutions). After the cells were treated with the compounds of the present disclosure for a period of time, the cell viability detection reagent was added to the culture medium for cell viability assessment according to the instructions provided with the CCK-8 kit. […] The growth inhibition of the compounds of the present disclosure on cells was plotted by Prism Graphpad software, and the IC50 values of the compounds of the present disclosure were calculated therefrom. […] Seeding protocol and treatment time for tumor cells

[4] = system: H1975; assay: CCK-8 proliferation, NCI-H1975 (H1975); format: cell-based, Human; details: Homo sapiens, NCI-H1975; Table B6, compounds designed based on the ALK inhibitors; H1975 cells; read-out: Inhibitory activity (IC50, nM) on tumor cell proliferation, H1975
In short: as §1

[5] = system: SR; assay: CCK-8 proliferation, SR; format: cell-based, Human; details: Homo sapiens; Table B6, compounds designed based on the ALK inhibitors; SR cells; read-out: Inhibitory activity (IC50, nM) on tumor cell proliferation, SR
In short: as §1

[6] = system: MCF7; assay: CCK-8 proliferation, MCF7 (MCF-7); format: cell-based; details: Homo sapiens, MCF7
In short: as §1

[7] = system: MM.1S; assay: CCK-8 proliferation, MM.1S; format: cell-based; details: Homo sapiens, MM1.S; Table B6, compounds designed based on the ALK inhibitors; MM.1S cells; read-out: Inhibitory activity (IC50, nM) on tumor cell proliferation, MM.1S
In short: as §1

[8] = molecular target: T2, human Cereblon WT GST-tagged protein (Homo sapiens, UniProt Q96SW2); assay: CRBN binding, HTRF (CEREBLON BINDING kit); details: Table II-2, CRBN binding screening, HTRF; for inhibition at 0.5 µM: read-out: Inhibition rate (%) at 0.5µM; for inhibition at 2 µM: read-out: Inhibition rate (%) at 2 µM
T2 construct: purchased CISBIO 64BDCRBNPEH
T2 sequence (Q96SW2 whole entry): as the sequence (Q96SW2 whole entry) above
In short: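 After 3 h at room temperature, emission at 665 and 620 nm was measured in a homogeneous time-resolved fluorescence format. Compounds competed with a Thalidomide-Re probe for GST-tagged wild-type human CRBN, which was labelled with a Eu anti-GST antibody.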

[9] = molecular target: T3, CK1a (Homo sapiens, UniProt P48729+Q96SW2); assay: Western blot degradation of CK1a (hPBMC); format: cell-based; details: Table D16
T3 construct: evaluate the effects of the compounds of the present disclosure on the expression of target proteins in cells; endogenous in cells; host or cells: hPBMC
In short: as §2

[10] = molecular target: T4, IKZF2 (Homo sapiens, UniProt Q96SW2+Q9UKS7); assay: Western blot degradation of IKZF2 (hPBMC); format: cell-based; details: Table D16
T4 construct: evaluate the effects of the compounds of the present disclosure on the expression of target proteins in cells; endogenous in cells; host or cells: hPBMC
T4 sequence (Q9UKS7 whole entry): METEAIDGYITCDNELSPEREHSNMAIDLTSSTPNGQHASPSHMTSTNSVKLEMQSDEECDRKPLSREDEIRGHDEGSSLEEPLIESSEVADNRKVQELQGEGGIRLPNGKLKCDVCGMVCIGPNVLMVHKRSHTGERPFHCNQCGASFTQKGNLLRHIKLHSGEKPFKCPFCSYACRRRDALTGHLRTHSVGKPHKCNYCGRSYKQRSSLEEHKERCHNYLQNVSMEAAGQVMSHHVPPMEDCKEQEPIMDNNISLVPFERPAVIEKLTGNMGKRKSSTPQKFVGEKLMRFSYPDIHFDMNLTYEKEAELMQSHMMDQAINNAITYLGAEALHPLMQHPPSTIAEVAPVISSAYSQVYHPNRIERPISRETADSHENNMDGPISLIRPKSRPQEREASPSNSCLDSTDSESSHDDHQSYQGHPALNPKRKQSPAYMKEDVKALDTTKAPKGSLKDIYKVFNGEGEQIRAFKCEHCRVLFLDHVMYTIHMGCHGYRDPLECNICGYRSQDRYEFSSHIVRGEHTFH
T4 sequence (Q96SW2 whole entry): as the sequence (Q96SW2 whole entry) above
T4 sequence (Q16531 whole entry partner): as the sequence (Q16531 whole entry partner) above
In short: as §2

[11] = molecular target: T5, GSPT1 (Homo sapiens, UniProt P15170+Q96SW2); assay: Western blot degradation of GSPT1 (hPBMC); format: cell-based; details: Table D16
T5 construct: evaluate the effects of the compounds of the present disclosure on the expression of target proteins in cells; endogenous in cells; host or cells: hPBMC
In short: as §2

[12] = molecular target: T6, WEE1 (Homo sapiens, UniProt P30291+Q96SW2); assay: Western blot degradation of WEE1 (hPBMC); format: cell-based; details: Table D16
T6 construct: evaluate the effects of the compounds of the present disclosure on the expression of target proteins in cells; endogenous in cells; host or cells: hPBMC
T6 sequence (P30291 whole entry): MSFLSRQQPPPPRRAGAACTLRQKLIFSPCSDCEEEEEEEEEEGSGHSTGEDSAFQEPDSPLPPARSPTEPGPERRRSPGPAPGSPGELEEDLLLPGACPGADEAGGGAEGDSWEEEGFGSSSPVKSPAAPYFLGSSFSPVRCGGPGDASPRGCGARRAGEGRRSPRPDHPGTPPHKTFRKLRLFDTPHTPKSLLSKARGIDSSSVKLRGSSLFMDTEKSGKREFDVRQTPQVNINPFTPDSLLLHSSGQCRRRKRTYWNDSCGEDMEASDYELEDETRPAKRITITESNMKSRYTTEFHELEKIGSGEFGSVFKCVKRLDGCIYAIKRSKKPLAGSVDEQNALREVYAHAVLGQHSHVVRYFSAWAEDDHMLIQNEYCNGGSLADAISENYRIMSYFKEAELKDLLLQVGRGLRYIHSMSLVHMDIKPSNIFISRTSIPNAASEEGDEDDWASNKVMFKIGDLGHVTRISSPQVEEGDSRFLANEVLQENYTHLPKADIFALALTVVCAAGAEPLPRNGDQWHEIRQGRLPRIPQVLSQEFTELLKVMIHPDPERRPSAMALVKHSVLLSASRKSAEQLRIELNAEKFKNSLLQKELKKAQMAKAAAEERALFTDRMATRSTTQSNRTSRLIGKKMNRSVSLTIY
T6 sequence (Q96SW2 whole entry): as the sequence (Q96SW2 whole entry) above
T6 sequence (Q16531 whole entry partner): as the sequence (Q16531 whole entry partner) above
In short: as §2

[13] = molecular target: T7, IKZF3 (Homo sapiens, UniProt Q96SW2+Q9UKT9); assay: Western blot degradation of IKZF3 (hPBMC); format: cell-based; details: Table D16
T7 construct: evaluate the effects of the compounds of the present disclosure on the expression of target proteins in cells; endogenous in cells; host or cells: hPBMC
T7 sequence (Q9UKT9 whole entry): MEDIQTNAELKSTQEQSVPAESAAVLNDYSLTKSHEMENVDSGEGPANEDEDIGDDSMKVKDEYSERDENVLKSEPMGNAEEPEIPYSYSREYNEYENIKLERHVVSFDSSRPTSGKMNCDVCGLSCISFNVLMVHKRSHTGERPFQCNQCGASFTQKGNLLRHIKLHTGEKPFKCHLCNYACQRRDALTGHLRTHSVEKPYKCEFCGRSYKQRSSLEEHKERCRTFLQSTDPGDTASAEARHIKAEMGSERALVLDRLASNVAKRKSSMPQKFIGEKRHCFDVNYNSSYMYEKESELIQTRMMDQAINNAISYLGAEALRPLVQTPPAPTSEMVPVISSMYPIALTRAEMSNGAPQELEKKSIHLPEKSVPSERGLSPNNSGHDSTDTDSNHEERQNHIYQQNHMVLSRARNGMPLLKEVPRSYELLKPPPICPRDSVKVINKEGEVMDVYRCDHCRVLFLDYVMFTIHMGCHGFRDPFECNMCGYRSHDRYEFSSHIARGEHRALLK
T7 sequence (Q96SW2 whole entry): as the sequence (Q96SW2 whole entry) above
T7 sequence (Q16531 whole entry partner): as the sequence (Q16531 whole entry partner) above
In short: as §2

[14] = molecular target: T8, IKZF1 (Homo sapiens, UniProt Q13422+Q96SW2); assay: Western blot degradation of IKZF1 (hPBMC); format: cell-based; details: Table D16
T8 construct: evaluate the effects of the compounds of the present disclosure on the expression of target proteins in cells; endogenous in cells; host or cells: hPBMC
T8 sequence (Q13422 whole entry): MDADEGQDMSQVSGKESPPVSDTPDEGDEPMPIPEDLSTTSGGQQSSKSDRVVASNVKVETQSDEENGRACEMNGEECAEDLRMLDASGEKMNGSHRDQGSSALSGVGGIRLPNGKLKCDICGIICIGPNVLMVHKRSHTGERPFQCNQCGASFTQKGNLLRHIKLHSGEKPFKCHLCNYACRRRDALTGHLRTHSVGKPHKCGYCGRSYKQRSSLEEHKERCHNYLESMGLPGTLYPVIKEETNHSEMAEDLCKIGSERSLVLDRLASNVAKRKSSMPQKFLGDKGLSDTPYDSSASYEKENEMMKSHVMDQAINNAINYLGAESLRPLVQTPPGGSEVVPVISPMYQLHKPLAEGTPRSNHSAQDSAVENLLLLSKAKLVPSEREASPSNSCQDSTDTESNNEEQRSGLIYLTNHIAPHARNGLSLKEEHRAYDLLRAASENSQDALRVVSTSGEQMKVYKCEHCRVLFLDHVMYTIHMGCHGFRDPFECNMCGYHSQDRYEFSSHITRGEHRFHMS
T8 sequence (Q96SW2 whole entry): as the sequence (Q96SW2 whole entry) above
T8 sequence (Q16531 whole entry partner): as the sequence (Q16531 whole entry partner) above
In short: as §2

[15] = Table B6, compounds designed based on the ALK inhibitors, MDA-MB-231 cells, read-out: Inhibitory activity (IC50, nM) on tumor cell proliferation, MDA-MB-231
[16] = Table B6, compounds designed based on the ALK inhibitors, MCF-7 cells, read-out: Inhibitory activity (IC50, nM) on tumor cell proliferation, MCF-7
[17] = MDA-MB-231, CCK-8, 96 hours, read-out: Inhibitory activity (IC50) on tumor cell proliferation, MDA-MB-231
[18] = CCK-8, read-out: Inhibitory activity (IC50) on tumor cell proliferation, MCF-7

Row | SMILES | IC50 [1] | Degradation of substrate protein ALK (substrate protein remaining %) [2] | IC50 [3, 15] | IC50 [4] | IC50 [5] | IC50 [6, 16] | IC50 [7] | inhibition at 0.5 µM [8] | inhibition at 2 µM [8] | Degradation of substrate protein CKla (substrate protein remaining %) [9] | IC50 [3, 17] | Degradation of substrate protein IKZF2 (substrate protein remaining %) [10] | Degradation of substrate protein GSPT1 (substrate protein remaining %) [11] | Degradation of substrate protein WEE1 (substrate protein remaining %) [12] | Degradation of substrate protein IKZF3 (substrate protein remaining %) [13] | Degradation of substrate protein IKZF1 (substrate protein remaining %) [14] | IC50 [6, 18]
1 | COc1cc(N2CCC(N3CCN(Cc4cc(N5CCC(=O)NC5=O)ncc4F)CC3)CC2)ccc1Nc1ncc(Cl)c(Nc2ccccc2P(C)(C)=O)n1 [GT-07608, 1-(4-((4-(1-(4-((5-chloro-4-((2-(dimethylphosphoryl)phenyl)amino)pyrimidin-2-yl)amino)-3-methoxyphenyl)piperidin-4-yl)piperazin-1-yl)methyl)-5-fluoropyridin-2-yl)dihydropyrimidine-2,4(1H,3H)-dione] | 10 to 50 nM | A (A is defined as 0% ≤ substrate protein remaining % ≤ 80%) | 100 to 500 nM | 100 to 500 nM | 1 to 10 nM | 100 to 500 nM | 500 to 1000 nM |  |  |  |  |  |  |  |  |  | 
2 | COc1cc(N2CCC(N(C)Cc3ccc(C4CCC(=O)NC4=O)c(F)c3)CC2)ccc1Nc1ncc(Cl)c(Nc2ccccc2P(C)(C)=O)n1 (stereo not drawn) [GT-03604, 3-(4-(((1-(4-((5-chloro-4-((2-(dimethylphosphoryl)phenyl)amino)pyrimidin-2-yl)amino)-3-methoxyphenyl)piperidin-4-yl)(methyl)amino)methyl)-2-fluorophenyl)piperidine-2,6-dione] | 10 to 50 nM | A (A is defined as 0% ≤ substrate protein remaining % ≤ 80%) | 100 to 500 nM | 100 to 500 nM | 1 to 10 nM |  | 500 to 1000 nM | 20 to 30% | 53 to 60% |  |  |  |  |  |  |  | 
3 | O=C1CCN(c2cnc(CCl)cn2)C(=O)N1 [GT-07635, 1-(5-(Chloromethyl)pyrazin-2-yl)dihydropyrimidine-2,4(1H,3H)-dione] |  |  |  |  |  |  |  |  |  | A (A is defined as 0% ≤ substrate protein remaining % ≤ 80%) | 1000 to 5000 nM | A (A is defined as 0% ≤ substrate protein remaining % ≤ 80%) | B (B is defined as substrate protein remaining % > 80%) | A (A is defined as 0% ≤ substrate protein remaining % ≤ 80%) | A (A is defined as 0% ≤ substrate protein remaining % ≤ 80%) | A (A is defined as 0% ≤ substrate protein remaining % ≤ 80%) | 
4 | Cc1cc(Nc2ncc(Cl)c(Nc3ccccc3S(=O)(=O)C(C)C)n2)c(OC(C)C)cc1C1CCN(Cc2ccc(C3CCC(=O)NC3=O)cc2)CC1 (stereo not drawn) [GT-07364, 3-(4-((4-(4-((5-chloro-4-((2-(isopropylsulfonyl)phenyl)amino)pyrimidin-2-yl)amino)-5-isopropoxy-2-methylphenyl)piperidin-1-yl)methyl)phenyl)piperidine-2,6-dione] | 100 to 500 nM | A (A is defined as 0% ≤ substrate protein remaining % ≤ 80%) | 500 to 1000 nM |  | 10 to 50 nM | 100 to 500 nM | 500 to 1000 nM |  |  |  |  |  |  |  |  |  | 
5 | O=C1CCN(c2cc(CCl)c(F)cn2)C(=O)N1 [GT-07199, 1-(4-(Chloromethyl)-5-fluoropyridin-2-yl)dihydropyrimidine-2,4(1H,3H)-dione] |  |  |  |  |  |  |  |  |  | A (A is defined as 0% ≤ substrate protein remaining % ≤ 80%) | 1000 to 5000 nM | A (A is defined as 0% ≤ substrate protein remaining % ≤ 80%) | A (A is defined as 0% ≤ substrate protein remaining % ≤ 80%) | B (B is defined as substrate protein remaining % > 80%) | A (A is defined as 0% ≤ substrate protein remaining % ≤ 80%) | B (B is defined as substrate protein remaining % > 80%) | 1000 to 5000 nM
6 | COc1cc(N2CCC(N3CCN(Cc4ccnc(N5CCC(=O)NC5=O)c4)CC3)CC2)ccc1Nc1ncc(Cl)c(Nc2ccccc2P(C)(C)=O)n1 [GT-07609, 1-(4-((4-(1-(4-((5-chloro-4-((2-(dimethylphosphoryl)phenyl)amino)pyrimidin-2-yl)amino)-3-methoxyphenyl)piperidin-4-yl)piperazin-1-yl)methyl)pyridin-2-yl)dihydropyrimidine-2,4(1H,3H)-dione] | 10 to 50 nM | A (A is defined as 0% ≤ substrate protein remaining % ≤ 80%) | 500 to 1000 nM | 100 to 500 nM | 1 to 10 nM | 100 to 500 nM | 500 to 1000 nM |  |  |  |  |  |  |  |  |  | 
7 | O=C1CCN(c2cnc(F)c(CCl)c2)C(=O)N1 [GT-07633, 1-(5-(Chloromethyl)-6-fluoropyridin-3-yl)dihydropyrimidine-2,4(1H,3H)-dione] |  |  |  |  |  |  |  |  |  | A (A is defined as 0% ≤ substrate protein remaining % ≤ 80%) | 1000 to 5000 nM | A (A is defined as 0% ≤ substrate protein remaining % ≤ 80%) | B (B is defined as substrate protein remaining % > 80%) | A (A is defined as 0% ≤ substrate protein remaining % ≤ 80%) | B (B is defined as substrate protein remaining % > 80%) | B (B is defined as substrate protein remaining % > 80%) | 1000 to 5000 nM
8 | COc1cc(N2CCC(N(C)Cc3ccc(N4CCC(=O)NC4=O)cc3)CC2)ccc1Nc1ncc(Cl)c(Nc2ccccc2P(C)(C)=O)n1 [GT-07615, 1-(4-(((1-(4-((5-chloro-4-((2-(dimethylphosphoryl)phenyl)amino)pyrimidin-2-yl)amino)-3-methoxyphenyl)piperidin-4-yl)(methyl)amino)methyl)phenyl)dihydropyrimidine-2,4(1H,3H)-dione] | 10 to 50 nM | A (A is defined as 0% ≤ substrate protein remaining % ≤ 80%) | 100 to 500 nM | 100 to 500 nM | 1 to 10 nM | 100 to 500 nM | 500 to 1000 nM |  |  |  |  |  |  |  |  |  | 
9 | COc1cc(N2CCC(N(C)Cc3ccc(C4CCC(=O)NC4=O)cc3)CC2)ccc1Nc1ncc(Cl)c(Nc2ccccc2P(C)(C)=O)n1 (stereo not drawn) [GT-03603, 3-(4-(((1-(4-((5-chloro-4-((2-(dimethylphosphoryl)phenyl)amino)pyrimidin-2-yl)amino)-3-methoxyphenyl)piperidin-4-yl)(methyl)amino)methyl)phenyl)piperidine-2,6-dione] | 50 to 100 nM | A (A is defined as 0% ≤ substrate protein remaining % ≤ 80%) | 500 to 1000 nM | 500 to 1000 nM | 1 to 10 nM |  | 500 to 1000 nM | 30 to 40% | 53 to 60% |  |  |  |  |  |  |  | 
